# Results: patent publication US8420049B2 (priority 2002, dated 2013)
# What was measured:
# [1] = Effect of dipyridamole treatment on uptake and distribution of [^11C] AMP in mice; type: in vivo, mouse; settings: 30 mg/kg dipyridamole ip 60 minutes before [^11C] AMP
# Procedure: The effect of dipyridamole treatment on the uptake and distribution of [^11C] AMP, nine mice were given a 30 mg/kg dose of dipyridamole ip 60 minutes prior to administration of the radiotracer was determined. Three mice each were sacrificed 5, 30, and 60 minutes after injection of 23.8 MBq (642 μCi, 8.7 μg/kg) of [^11C] AMP. All tissue samples were handled as described above.
# [2] = Ex vivo distribution of [^11C] AMP in mice; parameters: species or system mouse; settings: CD-1 mice, mean ± SD (n = 3)
# Procedure: Non-fasted, male CD-1 mice (25 g) were injected via the tail vein with 15.5 MBq (418 μCi, 2.57 μg/kg) of [^11C] AMP. Three mice each were sacrificed by cervical dislocation at 5, 30, and 60 minutes after injection. The lungs, heart, kidneys, liver, spleen, intestine, stomach, and brain were quickly removed and put on ice. One femur and samples of thigh muscle and blood were also collected. The organs were weighed, and the tissue radioactivity measured with an automated gamma counter (LKB Wallac 1282 Compugamma CS Universal Gamma Counter). The percent injected dose per gram of tissue (% ID/g) was calculated by comparison with samples of a standard dilution of the initial dose. All measurements were corrected for decay.
# [3] = In vitro metabolism of [^11C] AMP in human whole blood or plasma; type: in vitro ADME
# Procedure: Human plasma was prepared from heparinized blood of a healthy volunteer. 50 μL of [^11C] AMP (39.96-70.82 GBq/μmol, 1080-1914 mCi/μmol) was added to 1 mL of plasma or heparinized whole blood at 37° C. In one series of studies, dipyridamole was added to give a concentration of 500 μM in whole blood. One hundred μL samples, which were removed from the incubation mixture at 0, 2, 5, 10, 20, and 30 minutes, were added to 350 μL of water at 0° C. and acidified with 50 μL of 5N perchloric acid. After standing for 5 minutes on ice, the protein precipitate was removed by centrifugation at 13,000×g for 1 minute in a microcentrifuge. The acid soluble supernatant was analyzed by HPLC. Chromatographic separation of the labeled adenosine phosphate esters used a Phenomenex Synergi Polar RP column (4.6×250 mm, 10 micron particle size) eluted with 0.1N perchloric acid at 2 mL/min. Radioactivity was detected by a dual BGO flow detector (Bioscan Inc., Washington D.C.). Optical detection was at 254 nm. Data from both detectors was collected and analyzed by Laura software (Bioscan Inc., Washington D.C.).
structure (smiles),measurement,setting,value
OCCN(CCO)c1nc(N2CCCCC2)c2nc(N(CCO)CCO)nc(N3CCCCC3)c2n1 [dipyridamole],effect on amount of tracer in the blood,[1],did not affect
same,effect on uptake of [^11C] radiotracer in the lungs,[1]; 60 minutes after injection,significantly decreased
"Nc1n[11cH]nc2c1ncn2[C@@H]1O[C@H](COP(=O)(O)O)[C@@H](O)[C@H]1O [[^11C] AMP, [^11C] Adenosine 5′-Monophosphate]",Ex vivo mouse biodistribution,"[2]; Blood, 5 minutes after iv injection",27.94 ± 8.21 % ID/g
same,Ex vivo mouse biodistribution,"[2]; Blood, 30 minutes after iv injection",27.34 ± 0.41 % ID/g
same,Ex vivo mouse biodistribution,"[2]; Blood, 60 minutes after iv injection",24.34 ± 4.13 % ID/g
same,Ex vivo mouse biodistribution,"[2]; Bone, 5 minutes after iv injection",2.35 ± 0.68 % ID/g
same,Ex vivo mouse biodistribution,"[2]; Bone, 30 minutes after iv injection",2.57 ± 0.34 % ID/g
same,Ex vivo mouse biodistribution,"[2]; Bone, 60 minutes after iv injection",3.21 ± 0.48 % ID/g
same,Ex vivo mouse biodistribution,"[2]; Brain, 5 minutes after iv injection",0.78 ± 0.18 % ID/g
same,Ex vivo mouse biodistribution,"[2]; Brain, 30 minutes after iv injection",1.06 ± 0.19 % ID/g
same,Ex vivo mouse biodistribution,"[2]; Brain, 60 minutes after iv injection",0.80 ± 0.26 % ID/g
same,Ex vivo mouse biodistribution,"[2]; Heart, 5 minutes after iv injection",20.09 ± 3.24 % ID/g
same,Ex vivo mouse biodistribution,"[2]; Heart, 30 minutes after iv injection",18.07 ± 5.19 % ID/g
same,Ex vivo mouse biodistribution,"[2]; Heart, 60 minutes after iv injection",20.47 ± 2.87 % ID/g
same,Ex vivo mouse biodistribution,"[2]; Intestine, 5 minutes after iv injection",1.74 ± 0.41 % ID/g
same,Ex vivo mouse biodistribution,"[2]; Intestine, 30 minutes after iv injection",1.80 ± 0.50 % ID/g
same,Ex vivo mouse biodistribution,"[2]; Intestine, 60 minutes after iv injection",2.17 ± 1.06 % ID/g
same,Ex vivo mouse biodistribution,"[2]; Kidneys, 5 minutes after iv injection",8.88 ± 3.82 % ID/g
same,Ex vivo mouse biodistribution,"[2]; Kidneys, 30 minutes after iv injection",9.31 ± 2.88 % ID/g
same,Ex vivo mouse biodistribution,"[2]; Kidneys, 60 minutes after iv injection",6.80 ± 4.10 % ID/g
same,Ex vivo mouse biodistribution,"[2]; Liver, 5 minutes after iv injection",7.56 ± 3.98 % ID/g
same,Ex vivo mouse biodistribution,"[2]; Liver, 30 minutes after iv injection",2.99 ± 0.10 % ID/g
same,Ex vivo mouse biodistribution,"[2]; Liver, 60 minutes after iv injection",3.53 ± 0.55 % ID/g
same,Ex vivo mouse biodistribution,"[2]; Lungs, 5 minutes after iv injection",32.37 ± 4.52 % ID/g
same,Ex vivo mouse biodistribution,"[2]; Lungs, 30 minutes after iv injection",29.52 ± 5.42 % ID/g
same,Ex vivo mouse biodistribution,"[2]; Lungs, 60 minutes after iv injection",38.48 ± 3.63 % ID/g
same,Ex vivo mouse biodistribution,"[2]; Muscle, 5 minutes after iv injection",2.14 ± 0.61 % ID/g
same,Ex vivo mouse biodistribution,"[2]; Muscle, 30 minutes after iv injection",3.67 ± 0.54 % ID/g
same,Ex vivo mouse biodistribution,"[2]; Muscle, 60 minutes after iv injection",3.63 ± 1.04 % ID/g
same,Ex vivo mouse biodistribution,"[2]; Spleen, 5 minutes after iv injection",2.96 ± 1.49 % ID/g
same,Ex vivo mouse biodistribution,"[2]; Spleen, 30 minutes after iv injection",4.75 ± 0.67 % ID/g
same,Ex vivo mouse biodistribution,"[2]; Spleen, 60 minutes after iv injection",4.71 ± 1.06 % ID/g
same,Ex vivo mouse biodistribution,"[2]; Stomach, 5 minutes after iv injection",1.98 ± 0.36 % ID/g
same,Ex vivo mouse biodistribution,"[2]; Stomach, 30 minutes after iv injection",1.12 ± 0.25 % ID/g
same,Ex vivo mouse biodistribution,"[2]; Stomach, 60 minutes after iv injection",2.10 ± 0.98 % ID/g
same,conversion of the tracer to adenosine,"[3]; dipyridamole (500 μM) treated whole human blood, after 5 minutes",> 60%
same,conversion to ATP,"[3]; whole human blood, 37° C., after 10 minutes",> 60%
